Values of other authors, collected in patent US11325978B2, “Compositions and methods for treating beta-globinopathies” (priority 2018, dated 2022).

Tested on: RIOK3
Settings: collection of 72 inhibitors against 456 human kinases (Davis et al. 2011)

## COc1cc(Nc2c(C#N)cnc3cc(OCCCN4CCN(C)CC4)c(OC)cc23)c(Cl)cc1Cl [bosutinib, Bosutinib]
  inhibition of RIOK3 kinase activity: inhibit RIOK3 kinase activity
